Results reported in patent US4131620A, “Sulfamic acid halides and their manufacture” (BASF Aktiengesellschaft, priority 1976, dated 1978).

Assays:
Avena sativa = experiment: herbicidal action, post-emergence method, in a greenhouse; format: in vivo, Avena sativa (oats); details: Avena sat., 3 kg/ha of active ingredient (footnote +), 0 = no damage, 100 = complete destruction
Method: (§1) A range of crop plants and of unwanted plants are treated in a greenhouse. The test plants, segregated according to species, are grown in plastic pots. When they have grown to from 2 to 15 cm, depending on the age and the habit of the species, emulsions of the end product I prepared in Example 10 are applied to the leaves by means of jets which produce a fine spray (post-emergence treatment). Water (300 liters per hectare) serves as the vehicle and dispersing medium. […] The results are rated on a scale of from 0 to 100, with O = no damage and 100 = complete destruction.

Glycine max = experiment: as above; format: in vivo, Glycine max (soy beans); details: Glyc. max, 0 = no damage, 100 = complete destruction
Method: as §1

Oryza sativa = experiment: as above; format: in vivo, Oryza sativa (rice); details: Oryz. sat., 0 = no damage, 100 = complete destruction
Method: (§2) A range of crop plants and of unwanted plants are treated in a greenhouse. The test plants, segregated according to species, are grown in plastic pots. […] Water (300 liters per hectare) serves as the vehicle and dispersing medium. […] The results are rated on a scale of from 0 to 100, with O = no damage and 100 = complete destruction.

Ammannia coccinea = experiment: as above; format: in vivo, Ammannia coccinea (redstem); details: Amm. cocc., 0 = no damage, 100 = complete destruction
Method: as §1

Amaranthus retroflexus = experiment: as above; format: in vivo, Amaranthus retroflexus (pigweed); details: Amar. retr., 0 = no damage, 100 = complete destruction
Method: as §2

Cyperus esculentus = experiment: as above; format: in vivo, Cyperus esculentus (yellow nutsedge); details: Cyp. esc., 0 = no damage, 100 = complete destruction
Method: as §2

Ipomoea spp. = experiment: as above; format: in vivo, Ipomoea spp. (morning glory); details: Ipom. spp., 0 = no damage, 100 = complete destruction
Method: as §2

Ludwigia spp. = experiment: as above; format: in vivo; details: Ludw. spp., 0 = no damage, 100 = complete destruction
Method: as §2

Sesbania exaltata = experiment: as above; format: in vivo, Sesbania exaltata (hemp sesbania (coffeeweed)); details: Sesb. exalt., 0 = no damage, 100 = complete destruction
Method: as §1

Sida spinosa = experiment: as above; format: in vivo, Sida spinosa (teaweed (pricly sida)); details: Sida spin., 0 = no damage, 100 = complete destruction
Method: as §2

Sinapis alba = experiment: as above; format: in vivo, Sinapis alba (white mustard); details: Sin. alba, 3 kg/ha of active ingredient (footnote +), 0 = no damage, 100 = complete destruction
Method: as §1

crop plants = experiment: herbicidal action, post-emergence treatment in a greenhouse, crop plants; format: in vivo; details: after one week
Method: as §1

unwanted plants = experiment: herbicidal action, post-emergence treatment in a greenhouse, unwanted plants; format: in vivo
Method: as §1

SMILES: CCN(COC)S(=O)(=O)N1c2ccccc2C(=O)N(C(C)C)S1(=O)=O [Example 10, 3-isopropyl-1-N'-methoxymethyl-N'-ethylsulfamoyl-2,1,3-benzothiadiazin-4-one-2,2-dioxide]
- % damage (Avena sativa): 0%
- % damage (Glycine max; 2.0 kg/ha of active ingredient): 5%
- % damage (Glycine max; 4.0 kg/ha of active ingredient): 15%
- % damage (Oryza sativa; 2.0 kg/ha of active ingredient): 0%
- % damage (Oryza sativa; 4.0 kg/ha of active ingredient): 0%
- % damage (Ammannia coccinea; 2.0 kg/ha of active ingredient): 50%
- % damage (Ammannia coccinea; 4.0 kg/ha of active ingredient): 60%
- % damage (Amaranthus retroflexus; 2.0 kg/ha of active ingredient): 60%
- % damage (Amaranthus retroflexus; 4.0 kg/ha of active ingredient): 60%
- % damage (Cyperus esculentus; 2.0 kg/ha of active ingredient): 60%
- % damage (Cyperus esculentus; 4.0 kg/ha of active ingredient): 70%
- % damage (Ipomoea spp.; 2.0 kg/ha of active ingredient): 50%
- % damage (Ipomoea spp.; 4.0 kg/ha of active ingredient): 90%
- % damage (Ludwigia spp.; 2.0 kg/ha of active ingredient): 50%
- % damage (Ludwigia spp.; 4.0 kg/ha of active ingredient): 75%
- % damage (Sesbania exaltata; 2.0 kg/ha of active ingredient): 50%
- % damage (Sesbania exaltata; 4.0 kg/ha of active ingredient): 60%
- % damage (Sida spinosa; 2.0 kg/ha of active ingredient): 95%
- % damage (Sida spinosa; 4.0 kg/ha of active ingredient): 95%
- % damage (Sinapis alba): 100%
- damage to crop plants (in words) (crop plants): very little or no attach
- onset of action (in words) (unwanted plants): The action sets in rapidly
- damage to unwanted plants (in words) (unwanted plants; after one week): dying
